From paper PMC9178925 (Biochemical pharmacology, 2022)
Where “and” joins values, the source holds several entries; their conditions need not be identical. Identical values can stand only once.

Columns and labels:
α1β2γ2L GABAAR [1] = target: T1, α1β2γ2L GABAAR (Rattus norvegicus, UniProt P62813+P63138); experiment: Two-electrode voltage clamp, concentration-response and mechanistic; format: cell-based, rat (β2 rat or human)
α1(Q241L)β2γ2L GABAAR = α1(Q241L)β2γ2L GABAAR (Rattus norvegicus, UniProt P62813+P63138, Q268L); experiment: Two-electrode voltage clamp, potentiation of low GABA currents in oocytes; format: cell-based, rat (β2 rat or human)
α1β2γ2L GABAAR [2] = target: T1, α1β2γ2L GABAAR; experiment: Functional competition assay; details: for potentiation of GABA-activated receptors: n = 5 oocytes
α1β1γ2S GABAAR = α1β1γ2S GABAAR (Rattus norvegicus, UniProt P15431+P62813); format: cell-based; details: 100 μM (+)-catharanthine, % over control EC5 GABA; mean ± SEM
α1β2γ2S GABAAR = α1β2γ2S GABAAR (Rattus norvegicus, UniProt P62813+P63138); format: cell-based, rat (β2 rat or human)
α1β3γ2S GABAAR = α1β3γ2S GABAAR (Rattus norvegicus, UniProt P62813+P63079); format: cell-based
α2β1γ2S GABAAR = α2β1γ2S GABAAR (UniProt P15431+P47869); format: cell-based, human α2, rat β1 and γ2S; details: 100 μM (+)-catharanthine, % over control EC5 GABA; mean ± SEM
α2β3γ2S GABAAR [3] = experiment: Two-electrode voltage clamp, potentiation of EC5 GABA currents in oocytes; format: cell-based, human α2, rat β and γ2S
α2β3γ2S GABAAR [4] = target: α2β3γ2S GABAAR (UniProt P47869+P63079); experiment: as above; format: cell-based, human α2, rat β3 and γ2S
α1β3(M286C)γ2S GABAAR = α1β3(M286C)γ2S GABAAR (Rattus norvegicus, UniProt P62813+P63079, M311C); experiment: Two-electrode voltage clamp, potentiation of low GABA currents in oocytes; format: cell-based; details: 100 μM (+)-catharanthine, ~EC5 GABA, n = 5 oocytes
α1β2(N265S)γ2S GABAAR = α1β2(N265S)γ2S GABAAR (Rattus norvegicus, UniProt P62813+P63138, N289S); experiment: as above; format: cell-based, rat (β2 rat or human)
α1β2(N265S)γ2L GABAAR = α1β2(N265S)γ2L GABAAR (Rattus norvegicus, UniProt P62813+P63138, N289S); format: cell-based, rat (β2 rat or human); details: β2(N265S)
α1β2(R269A)γ2L GABAAR = α1β2(R269A)γ2L GABAAR (Rattus norvegicus, UniProt P62813+P63138, R293A); format: cell-based, rat (β2 rat or human); details: β2(R269A)
α1β2(K279A)γ2L GABAAR = α1β2(K279A)γ2L GABAAR (Rattus norvegicus, UniProt P62813+P63138, K303A); format: cell-based, rat (β2 rat or human); details: β2(K279A)
α1β2(D282A)γ2L GABAAR = α1β2(D282A)γ2L GABAAR (Rattus norvegicus, UniProt P62813+P63138, D306A); format: cell-based, rat (β2 rat or human); details: β2(D282A)
[5] = target: α1β2(K279A+D282A)γ2L GABAAR (Rattus norvegicus, UniProt P62813+P63138, D306A/K303A); format: cell-based, rat (β2 rat or human); details: β2(K279A+D282A)
[6] = tested on: β2/3-containing GABAARs vs β1-containing GABAARs; experiment: GABAAR subtype selectivity of potentiation; format: cell-based; details: low, subsaturating GABA
[7] = 100 μM (+)-catharanthine, % over control EC5 GABA, mean ± SEM
[8] = 100 μM (+)-catharanthine, ~EC5 GABA
[9] = read-out: KCath (estimated affinity of (+)-catharanthine for the resting receptor), low GABA (PA ~0.2), Eq. 1, NCath = 2, mean ± SEM, 5 oocytes
[10] = calculated from cCath, NCath = 2
[11] = low GABA (PA ~0.2), Eq. 1, NCath = 2
[12] = absence of GABA, Hill equation fit
[13] = 1 μM R(+)-etomidate + 10 μM (+)-catharanthine
[14] = GABA + 3 μM loreclezole + 30 μM (+)-catharanthine

## NCCCC(=O)O [GABA, γ-aminobutyric acid, reference compound]
α1β2γ2L GABAAR [1]; 2 μM GABA alone, normalized to 1 mM GABA + 50 μM propofol
  PA (probability of being in the active state) of peak response: 0.18 and 0.17 ± 0.02 and 0.15 ± 0.02
α1β2γ2L GABAAR [1]; 10 μM GABA alone, n = 6 oocytes
  PA of peak response: 0.26 ± 0.03
α1(Q241L)β2γ2L GABAAR; 30 μM GABA alone
  PA (probability of being in the active state) of peak response: 0.19 ± 0.05
α1β2γ2L GABAAR [2]; 0.05 μM GABA alone
  PA of peak response: 0.004 ± 0.001
α1β2γ2L GABAAR [2]; 0.75 μM GABA alone
  PA of peak response: 0.051 ± 0.018
α1β2γ2L GABAAR [2]; 0.2–0.5 μM GABA alone, n = 7 oocytes
  mean PA of the peak response: 0.009 ± 0.008
α1β2γ2L GABAAR [2]; 1–2 μM GABA alone
  PA of peak response: 0.030 ± 0.007

## CCC1=C[C@@H]2CN3CCc4c([nH]c5ccccc45)[C@@](C(=O)OC)(C2)[C@@H]13 [(+)-catharanthine, (+)-3,4-didehydrocoronaridine]
α1β1γ2S GABAAR
  (+)-Catharanthine maximal potentiation (%): 269 ± 42 (4) %
α1β2γ2S GABAAR; [7]
  (+)-Catharanthine maximal potentiation (%): 739 ± 110 (11) %
α1β2γ2S GABAAR; [8]
  potentiation of the response to low GABA: 1099 ± 163%
α1β2γ2S GABAAR; α1β2γ2S vs α1β1γ2S, 100 μM
  (+)-Catharanthine relative potentiation (αxβ2/3γ2S)/(αxβ1γ2S): 2.7
α1β3γ2S GABAAR; [7]
  (+)-Catharanthine maximal potentiation (%): 646 ± 64 (10) %
α1β3γ2S GABAAR; 100 μM (+)-catharanthine, ~EC5 GABA, n = 6 oocytes
  potentiation of the response to low GABA: 667 ± 111%
α1β3γ2S GABAAR; α1β3γ2S vs α1β1γ2S, 100 μM
  (+)-Catharanthine relative potentiation (αxβ2/3γ2S)/(αxβ1γ2S): 2.4
α2β1γ2S GABAAR
  (+)-Catharanthine maximal potentiation (%): 211 ± 26 (5) %
α2β3γ2S GABAAR [3]; 100 μM (+)-catharanthine, % over control EC5 GABA, first line printed α2β3γ2S
  (+)-Catharanthine maximal potentiation (%): 691 ± 65 (5) %
α2β3γ2S GABAAR [3]; first line printed α2β3γ2S vs α2β1γ2S, 100 μM
  (+)-Catharanthine relative potentiation (αxβ2/3γ2S)/(αxβ1γ2S): 3.3
α2β3γ2S GABAAR [4]; 100 μM (+)-catharanthine, % over control EC5 GABA, second line printed α2β3γ2S
  (+)-Catharanthine maximal potentiation (%): 728 ± 120 (4) %
α2β3γ2S GABAAR [4]; second line printed α2β3γ2S vs α2β1γ2S, 100 μM
  (+)-Catharanthine relative potentiation (αxβ2/3γ2S)/(αxβ1γ2S): 3.5
α1β3(M286C)γ2S GABAAR
  potentiation of the response to low GABA: 651 ± 115%
α1β2(N265S)γ2S GABAAR; [8]
  potentiation of the response to low GABA: 224 ± 13%
α1β2γ2L GABAAR [1]; 2 μM GABA, Hill equation fit, % of control
  maximal efficacy [(PAmax/PAmin)-1 × 100] / maximum potentiation: 341%
α1β2γ2L GABAAR [1]; 30 μM (+)-catharanthine, 2 μM GABA, n = 6 oocytes
  potentiation of GABA-evoked currents: 372 ± 72%
α1β2γ2L GABAAR [1]; read-out: EC50 for potentiation, wild-type, 2 μM GABA, Hill equation fit
  EC50: 13.5 ± 1.8 µM
α1β2γ2L GABAAR [1]; read-out: KCath (estimated affinity of (+)-catharanthine for the resting receptor), wild-type, 2 μM GABA background, fit to Eq. 1, NCath constrained to 2, mean ± SEM, 5 oocytes
  Kd: 29.4 ± 6 µM
α1β2γ2L GABAAR [1]; wild-type, 2 μM GABA background, fit to Eq. 1, NCath constrained to 2
  cCath (ratio of the affinities for the active and resting states): 0.231 and 0.231±0.023
α1β2γ2L GABAAR [1]; wild-type, 2 μM GABA, Hill equation fit
  nH (Hill coefficient): 1.66 and 1.66±0.33
α1β2γ2L GABAAR [1]; wild-type, calculated from cCath as NCathRTln(cCath), NCath = 2
  ΔG (free energy change to stabilize the active state): -1.76 kcal/mol and -1.76 ± 0.12 kcal/mol
α1β2(N265S)γ2L GABAAR; [9]
  Kd: 23.9 ± 2.5 µM
α1β2(N265S)γ2L GABAAR; [10]
  ΔG: -1.12 ± 0.07 kcal/mol
α1β2(N265S)γ2L GABAAR; [11]
  cCath (ratio of the affinities for the active and resting states): 0.390±0.021
α1β2(N265S)γ2L GABAAR; low GABA, Hill equation fit
  EC50: 17.7 ± 1.4 µM
  nH: 1.53±0.13
α1β2(R269A)γ2L GABAAR; [9]
  Kd: 18.8 ± 3.3 µM
α1β2(R269A)γ2L GABAAR; [10]
  ΔG: -1.53 ± 0.11 kcal/mol
α1β2(R269A)γ2L GABAAR; [11]
  cCath (ratio of the affinities for the active and resting states): 0.279±0.022
α1β2(R269A)γ2L GABAAR; low GABA, Hill equation fit
  EC50: 9.3 ± 1.2 µM
  nH: 1.29±0.10
α1β2(K279A)γ2L GABAAR; read-out: KCath (estimated affinity of (+)-catharanthine for the resting receptor), direct activation in the absence of GABA (PA,constitutive 0.22), Eq. 1, NCath = 2, 5 oocytes
  Kd: 17.8 ± 1.6 µM
α1β2(K279A)γ2L GABAAR; absence of GABA, Eq. 1, NCath = 2
  cCath (ratio of the affinities for the active and resting states): 0.421±0.034
α1β2(K279A)γ2L GABAAR; [12]
  EC50: 13.6 ± 2 µM
  nH: 1.08±0.11
α1β2(K279A)γ2L GABAAR; [10]
  ΔG: -1.04 ± 0.10 kcal/mol
α1β2(D282A)γ2L GABAAR; [9]
  Kd: 7.1 ± 2.8 µM
α1β2(D282A)γ2L GABAAR; [10]
  ΔG: -0.55 ± 0.07 kcal/mol
α1β2(D282A)γ2L GABAAR; [11]
  cCath (ratio of the affinities for the active and resting states): 0.630±0.039
α1β2(D282A)γ2L GABAAR; low GABA, Hill equation fit
  EC50: 7.7 ± 1.6 µM
  nH: 1.88±0.39
[5]; [10]
  ΔG: −0.19 ± 0.01 kcal/mol and −0.19±0.01nd kcal/mol
[5]; pooled data, best-fit ± standard error of the fit
  cCath (ratio of the affinities for the active and resting states): 0.848±0.010nd
[5]; pooled data, Hill equation fit
  EC50: 15.8 ± 5.9 µM
  nH: 1.30
α1(Q241L)β2γ2L GABAAR; 30 μM (+)-catharanthine, 30 μM GABA, n = 6 oocytes
  potentiation of GABA-evoked currents: 231 ± 33%
[6]
  efficacy of potentiation at β2/3-containing relative to β1-containing GABAARs: 2.4–3.5 times
α1β2γ2L GABAAR [2]; [13]
  predicted PA, model with overlapping sites (Eq. 2): 0.024 ± 0.006
  predicted PA, model with unique non-overlapping sites (Eq. 1): 0.115 ± 0.031
α1β2γ2L GABAAR [2]; 10 μM (+)-catharanthine coapplied with 1 μM R(+)-etomidate, 7 oocytes
  PA of peak response, observed: 0.086 ± 0.024
α1β2γ2L GABAAR [2]; 10 μM (+)-catharanthine, 0.05 μM GABA
  potentiation of GABA-activated receptors: 1600 ± 400%
α1β2γ2L GABAAR [2]; 10 μM (+)-catharanthine, 1 μM R(+)-etomidate, n = 7 oocytes
  potentiation of the peak response elicited by R(+)-etomidate: 160 ± 24%
α1β2γ2L GABAAR [2]; 10 μM (+)-catharanthine, 2 μM pregnanolone, five oocytes
  potentiation of the peak response to pregnanolone: 2200 ± 400%
α1β2γ2L GABAAR [2]; 10 μM (+)-catharanthine, 1–2 μM GABA
  potentiation of GABA-activated receptors: 353 ± 68%
α1β2γ2L GABAAR [2]; 0.2–0.5 μM GABA + 3 μM loreclezole + 30 μM (+)-catharanthine
  PA of the peak response, observed: 0.21 ± 0.13
α1β2γ2L GABAAR [2]; 0.2–0.5 μM GABA + 30 μM (+)-catharanthine
  PA of the peak response: 0.16 ± 0.11
α1β2γ2L GABAAR [2]; [14]
  predicted PA, distinct site model: 0.62 ± 0.17
  predicted PA, same site model: 0.19 ± 0.11

## [Cl-].[Cl-].[Zn+2] [ZnCl2]
α1β2(N265S)γ2S GABAAR; 10 μM ZnCl2 pre-applied 60 s then co-applied with GABA
  change of GABA responses (positive = potentiation): +11 ± 1%
